Consider 2 molecules from PubChem BioAssay AID602458 (NMMLSC, 2012).

For this data set, the system named is 1xPBS pH 7.4 kinetic solubility, UV absorbance. Nature of the data set: compound solubility in PBS buffer – biophysical, 1xPBS, pH 7.4, UV absorbance, ADME assay for GPR30 and estrogen receptor ligands, late-stage follow-up (AID 602458). As to conditions: stronger effect = higher value.

Values after ≈ are worked out from the molar mass of the structure shown. Active and inactive are the calls of the source.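 How the source made its calls: active means compounds whose saturated solubility in pH 7.4 saline buffer exceeds 10 µg/mL; inactive means the rest.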

One may read the solubility as the dissolved amount per volume that the medium holds.

Consider `CC(=O)c1ccc2c(c1)[C@@H]1C=CC[C@@H]1[C@H](c1cc3c(cc1Br)OCO3)N2`, for which the solubility was 0.14 µg/mL (inactive) (≈ 0.34 µM). The result for `COc1cc([N+](=O)[O-])cc2c1NC(C1CC=CCC1)C1CC=CC21` (configuration not stated) reads 0.28 µg/mL (inactive) (≈ 0.858 µM).
